# Numbered stars: 1 amine (or outer) side, 2 acyl side, 3 side chain; on linkers, the order of the positions; unused ones are H or OH. Bridge positions count the residues as written; N and C are the ends. Square brackets hold non-standard residues; d marks the D form. Side chains are listed from the residue outwards. Peptide text beside a SMILES is read from it. * marks the point of attachment. Phe(3-CONH2) = NC(=O)c1cccc(C[C@H](N)C(=O)O)c1; Phe(2-CONH2) = NC(=O)c1ccccc1C[C@H](N)C(=O)O; X15 = N#CN=C(N)NCCC[C@H](N[*:1])C(=O)[*:2]; X5 = O=C([C@H](Cc1ccc(CO)cc1)N[*:1])[*:2]; Picolinoyl(3,5-F2) = O=C(c1ncc(F)cc1F)*; X16 = CCN(CC)CC[C@H](N[*:1])C(=O)[*:2]; Picolinoyl(5-F) = O=C(c1ccc(F)cn1)*; Lys(Me2) = CN(C)CCCC[C@H](N)C(=O)O; Orn(iPr) = CC(C)NCCC[C@H](N)C(=O)O; Orn(Me2) = CN(C)CCC[C@H](N)C(=O)O; Oxazole2carbonyl = O=C(c1ncco1)*; 3Pal = N[C@@H](Cc1cccnc1)C(=O)O; Pyrrole2CO = O=C(c1ccc[nH]1)*; Picolinoyl = O=C(c1ccccn1)*; ΔPro = O=C(O)[C@@H]1C=CCN1; Orn = NCCC[C@H](N)C(=O)O; Dap = NC[C@H](N)C(=O)O; AEEA = NCCOCCOCC(=O)O; X1 = O=C(c1ncccc1F)*
# Key:
# [1] = biological target: T1, hAM2 receptor (CALCRL:RAMP3) (Homo sapiens, UniProt O60896+Q16602); test: AM2 receptor antagonist activity measured by cAMP assay (HTRF); assay type: cell-based; conditions: for Emax: % MPE: percent of the maximal possible effect, read-out: hAM2-R Efficacy Antag (%) Ave; for Emax / IC50: agonist human adrenomedullin; for IC50: GeneBLAzer CALCRL:RAMP3-CRE-bla Freestyle 293F cells, read-out: hAM2-R IC50 Ave; for selectivity ratio CGRP/AM2: selectivity ratio for hCGRP over hAM2, calculated from the IC50 values
# T1 construct: expressed in transfected cells; host or cells: GeneBLAzer CALCRL:RAMP3-CRE-bla Freestyle 293F
# T1 sequence (Q16602 23-461): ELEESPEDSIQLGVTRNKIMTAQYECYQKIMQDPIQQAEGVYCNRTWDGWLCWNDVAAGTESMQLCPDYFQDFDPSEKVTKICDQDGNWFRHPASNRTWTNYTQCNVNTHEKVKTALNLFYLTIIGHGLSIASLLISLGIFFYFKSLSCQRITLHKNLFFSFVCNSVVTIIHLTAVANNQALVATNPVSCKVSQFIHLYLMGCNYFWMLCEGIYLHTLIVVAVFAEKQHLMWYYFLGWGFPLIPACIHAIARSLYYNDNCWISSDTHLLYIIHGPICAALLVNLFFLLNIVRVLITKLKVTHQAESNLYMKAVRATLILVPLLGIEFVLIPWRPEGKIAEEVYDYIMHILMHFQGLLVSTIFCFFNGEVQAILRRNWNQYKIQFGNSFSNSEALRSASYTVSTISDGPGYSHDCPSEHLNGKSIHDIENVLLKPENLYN
# T1 sequence (O60896 24-148): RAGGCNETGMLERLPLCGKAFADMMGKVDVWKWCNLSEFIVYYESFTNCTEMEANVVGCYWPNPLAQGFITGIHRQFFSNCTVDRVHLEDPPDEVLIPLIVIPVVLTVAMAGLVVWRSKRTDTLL
# [2] = biological target: T2, hCGRP receptor (CALCRL:RAMP1) (Homo sapiens, UniProt O60894+Q16602); test: CGRP receptor antagonist activity measured by cAMP assay (HTRF); assay type: cell-based; conditions: agonist human α-CGRP; for Emax: % MPE: percent of the maximal possible effect, read-out: hCGRP-R Efficacy Antag (%) Ave; for IC50: GeneBLAzer CALCRL:RAMP1-CRE-bla Freestyle 293F cells, 30 minutes, read-out: hCGRP-R IC50 Ave
# T2 construct: host or cells: GeneBLAzer CALCRL:RAMP1-CRE-bla Freestyle 293F
# T2 sequence (Q16602 23-461): as the sequence (Q16602 23-461) above
# T2 sequence (O60894 27-148): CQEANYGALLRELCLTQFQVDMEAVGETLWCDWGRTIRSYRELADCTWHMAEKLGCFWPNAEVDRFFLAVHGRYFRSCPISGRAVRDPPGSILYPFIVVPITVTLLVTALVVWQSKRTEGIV
# Experimental: Example 6: CGRP Receptor Antagonist Activity Measured by cAMP Assay
# CGRP receptor agonists increase intracellular cyclic adenosine mono-phosphate (cAMP). CGRP receptor antagonists can reduce the agonist effect. Antagonist activity was assessed by measurement of cyclic adenosine mono-phosphate (cAMP) using cell line stably expressing the hCGRP receptor (GeneBLAzer® CALCRL:RAMP1-CRE-bla Freestyle™ 293F, Invitrogen). hCGRP receptor expressing cells were maintained in DMEM high-glucose with GlutaMAX™ containing 10% (v/v) FBS, 0.1 mM NEAA, 25 mM HEPES, 5 ug/ml Blasticidin, 100 ug/ml Hygromycin, and 400 ug/ml Geneticin at 37° C. under 5% CO2 in a humidified atmosphere. For cAMP measurement, cells were washed once with 5 ml 1×PBS, cell maintenance media was replaced with compound buffer ((CB): DMEM containing 0.1% BSA and 0.5 mM IBMX), and flasks were incubated for 1 hour at 37° C. under 5% CO2 in a humidified atmosphere. Cells were removed from culture flasks using non-enzymatic cell dissociation buffer and harvested in CB. The reaction was performed in 384 well white small volume plates (Greiner) at a density of 10,000 cells/well. Cells were exposed to varying concentrations of antagonist compounds for 30 minutes in the presence of a fixed concentration of agonist (human α-CGRP). cAMP levels were measured using an HTRF (homogeneous time resolved fluorescence)-based competitive cAMP immunoassay (cAMP Dynamic 2 Kit, Cisbio), according to the manufacturer's instructions. […] Reported parameters include antagonist potency IC50 (the concentration causing half-maximal inhibition of the agonist response for antagonist compounds) and efficacy (% MPE: percent of the maximal possible effect).
Structure (SMILES),Emax [1],IC50 [1],selectivity ratio CGRP/AM2 [1],Emax [2],IC50 [2]
"CC(C)[C@@H]1NC(=O)[C@H](CC(=O)O)NC(=O)[C@H](CCCNC(=N)N)NC(=O)[C@@H](NC(=O)[C@H](Cc2ccc(O)cc2)NC(=O)[C@H](NC(=O)c2ccccn2)C(C)C)CSSC[C@@H](C(=O)N[C@@H](Cc2cccnc2)C(N)=O)NC(=O)[C@H](Cc2cccnc2)NC(=O)[C@@H]2CCCN2C(=O)CNC1=O [Compound 3, Picolinoyl-D-Val-Tyr-c(Cys-Arg-Asp-Val-Gly-Pro-3Pal-Cys)-3Pal-NH2] (Picolinoyl-[dV]YCRDVGP[3Pal]C[3Pal]-NH2; disulfide 3-10)",101%,35 nM,285,100%,0.12 nM
"CC(C)NCCC[C@@H]1NC(=O)[C@@H](NC(=O)[C@H](Cc2ccc(O)cc2)NC(=O)[C@H](NC(=O)c2ncc(F)cc2F)C(C)C)CSSC[C@@H](C(=O)N[C@@H](Cc2cccnc2)C(N)=O)NC(=O)[C@H](Cc2ccccc2)NC(=O)[C@@H]2CCCN2C(=O)CNC(=O)[C@H](C(C)C)NC(=O)[C@H](CC(=O)O)NC1=O [Compound 62, Picolinoyl(3,5-F2)-D-Val-Tyr-c(Cys-Orn(iPr)-Asp-Val-Gly-Pro-Phe-Cys)-3Pal-NH2] ({Picolinoyl(3,5-F2)}-[dV]YC[Orn(iPr)]DVGPFC[3Pal]-NH2; disulfide 3-10)",100%,85 nM,592,100%,0.14 nM
"CCN(CC)CC[C@@H]1NC(=O)[C@@H](NC(=O)[C@H](Cc2ccc(O)cc2)NC(=O)[C@H](NC(=O)c2ccccn2)C(C)C)CSSC[C@@H](C(=O)N[C@@H](Cc2cccnc2)C(N)=O)NC(=O)[C@H](Cc2ccccc2)NC(=O)[C@@H]2CCCN2C(=O)CNC(=O)[C@H](C(C)C)NC(=O)[C@H](CC(=O)O)NC1=O [Compound 8, Picolinoyl-D-Val-Tyr-c(Cys-Dab(Et2)-Asp-Val-Gly-Pro-Phe-Cys)-3Pal-NH2] (Picolinoyl-[dV]YC[X16]DVGPFC[3Pal]-NH2; disulfide 3-10)",100%,30 nM,347,100%,0.09 nM
"CC(C)NCCC[C@@H]1NC(=O)[C@@H](NC(=O)[C@H](Cc2ccc(O)cc2)NC(=O)[C@H](NC(=O)c2ccccn2)C(C)C)CSSC[C@@H](C(=O)N[C@@H](Cc2cccnc2)C(N)=O)NC(=O)[C@H](Cc2ccc(CO)cc2)NC(=O)[C@@H]2C=CCN2C(=O)CNC(=O)[C@H](C(C)C)NC(=O)[C@H](CC(=O)O)NC1=O [Compound 69, Picolinoyl-D-Val-Tyr-c(Cys-Orn(iPr)-Asp-Val-Gly-Dhp-Phe(4-CH2OH)-Cys)-3Pal-NH2] (Picolinoyl-[dV]YC[Orn(iPr)]DVG[ΔPro][X5]C[3Pal]-NH2; disulfide 3-10)",100%,64 nM,497,100%,0.13 nM
CC(C)[C@@H]1NC(=O)[C@H](CC(=O)O)NC(=O)[C@H](CNC(=O)COCCOCCNC(=O)COCCOCCN)NC(=O)[C@@H](NC(=O)[C@H](Cc2ccc(O)cc2)NC(=O)[C@H](NC(=O)c2ccccn2)C(C)C)CSSC[C@@H](C(=O)N[C@@H](Cc2cccnc2)C(N)=O)NC(=O)[C@H](Cc2ccccc2)NC(=O)[C@@H]2CCCN2C(=O)CNC1=O [Compound 10] (Picolinoyl-[dV]YC[Dap]([AEEA-AEEA])DVGPFC[3Pal]-NH2; disulfide 3-10),107%,,,100%,
"CC(C)NCCC[C@@H]1NC(=O)[C@@H](NC(=O)[C@H](Cc2ccc(O)cc2)NC(=O)[C@H](NC(=O)c2ccc(F)cn2)C(C)C)CSSC[C@@H](C(=O)N[C@@H](Cc2cccnc2)C(N)=O)NC(=O)[C@H](Cc2cccc(C(N)=O)c2)NC(=O)[C@@H]2C=CCN2C(=O)CNC(=O)[C@H](C(C)C)NC(=O)[C@H](CC(=O)O)NC1=O [Compound 68, Picolinoyl(5-F)-D-Val-Tyr-c(Cys-Orn(iPr)-Asp-Val-Gly-Dhp-Phe(3-Cbm)-Cys)-3Pal-NH2] ({Picolinoyl(5-F)}-[dV]YC[Orn(iPr)]DVG[ΔPro][Phe(3-CONH2)]C[3Pal]-NH2; disulfide 3-10)",100%,18 nM,300,101%,0.06 nM
"CC(C)[C@@H]1NC(=O)[C@H](CC(=O)O)NC(=O)[C@H](CCCNC(=O)[C@@H](N)CCCCN(C)C)NC(=O)[C@@H](NC(=O)[C@H](Cc2ccc(O)cc2)NC(=O)[C@H](NC(=O)c2ncco2)C(C)C)CSSC[C@@H](C(=O)N[C@@H](Cc2cccnc2)C(N)=O)NC(=O)[C@H](Cc2ccccc2)NC(=O)[C@@H]2CCCN2C(=O)CNC1=O [Compound 44, Oxazole-2-carbonyl-D-Val-Tyr-c(Cys-Orn(Lys(Me2))-Asp-Val-Gly-Pro-Phe-Cys)-3Pal-NH2] (Oxazole2carbonyl-[dV]YC[Orn](Lys(Me2))DVGPFC[3Pal]-NH2; disulfide 3-10)",100%,114 nM,668,100%,0.17 nM
CC(C)[C@@H]1NC(=O)[C@H](CC(=O)O)NC(=O)[C@H](CCCNC(=N)N)NC(=O)[C@@H](NC(=O)[C@H](Cc2ccc(O)cc2)NC(=O)[C@H](NC(=O)c2ccc[nH]2)C(C)C)CSSC[C@@H](C(=O)N[C@@H](Cc2cccnc2)C(N)=O)NC(=O)[C@H](Cc2ccccc2)NC(=O)[C@@H]2CCCN2C(=O)CNC1=O [Compound 49] (Pyrrole2CO-[dV]YCRDVGPFC[3Pal]-NH2; disulfide 3-10),99%,89 nM,461,100%,0.19 nM
"CC(C)[C@@H]1NC(=O)[C@H](CC(=O)O)NC(=O)[C@H](CCCNC(N)=NC#N)NC(=O)[C@@H](NC(=O)[C@H](Cc2ccc(O)cc2)NC(=O)[C@H](NC(=O)c2ccccn2)C(C)C)CSSC[C@@H](C(=O)N[C@@H](Cc2cccnc2)C(N)=O)NC(=O)[C@H](Cc2ccccc2)NC(=O)[C@@H]2CCCN2C(=O)CNC1=O [Compound 26, Picolinoyl-D-Val-Tyr-c(Cys-Arg(CN)-Asp-Val-Gly-Pro-Phe-Cys)-3Pal-NH2] (Picolinoyl-[dV]YC[X15]DVGPFC[3Pal]-NH2; disulfide 3-10)",100%,,,100%,
"CC(C)NCCC[C@@H]1NC(=O)[C@@H](NC(=O)[C@H](Cc2ccc(O)cc2)NC(=O)[C@H](NC(=O)c2ncco2)C(C)C)CSSC[C@@H](C(=O)N[C@@H](Cc2cccnc2)C(N)=O)NC(=O)[C@H](Cc2ccc(CO)cc2)NC(=O)[C@@H]2C=CCN2C(=O)CNC(=O)[C@H](C(C)C)NC(=O)[C@H](CC(=O)O)NC1=O [Compound 70, Oxazole-2-carbonyl-D-Val-Tyr-c(Cys-Orn(iPr)-Asp-Val-Gly-Dhp-Phe(4-CH2OH)-Cys)-3Pal-NH2] (Oxazole2carbonyl-[dV]YC[Orn(iPr)]DVG[ΔPro][X5]C[3Pal]-NH2; disulfide 3-10)",100%,107 nM,727,100%,0.15 nM
"CC(C)NCCC[C@@H]1NC(=O)[C@@H](NC(=O)[C@H](Cc2ccccc2C(N)=O)NC(=O)[C@H](NC(=O)c2ncco2)C(C)C)CSSC[C@@H](C(=O)N[C@@H](Cc2cccnc2)C(N)=O)NC(=O)[C@H](Cc2ccccc2)NC(=O)[C@@H]2CCCN2C(=O)CNC(=O)[C@H](C(C)C)NC(=O)[C@H](CC(=O)O)NC1=O [Compound 30, Oxazole-2-carbonyl-D-Val-Phe(2-Cbm)-c(Cys-Orn(iPr)-Asp-Val-Gly-Pro-Phe-Cys)-3Pal-NH2] (Oxazole2carbonyl-[dV][Phe(2-CONH2)]C[Orn(iPr)]DVGPFC[3Pal]-NH2; disulfide 3-10)",98%,700 nM,6628,100%,0.11 nM
"CC(C)[C@@H]1NC(=O)[C@H](CC(=O)O)NC(=O)[C@H](CCCN(C)C)NC(=O)[C@@H](NC(=O)[C@H](Cc2ccc(O)cc2)NC(=O)[C@H](NC(=O)c2ncccc2F)C(C)C)CSSC[C@@H](C(=O)N[C@@H](Cc2cccnc2)C(N)=O)NC(=O)[C@H](Cc2ccccc2)NC(=O)[C@@H]2CCCN2C(=O)CNC1=O [Compound 46, Picolinoyl(3-F)-D-Val-Tyr-c(Cys-Orn(Me2)-Asp-Val-Gly-Pro-Phe-Cys)-3Pal-NH2] (X1-[dV]YC[Orn(Me2)]DVGPFC[3Pal]-NH2; disulfide 3-10)",99%,184 nM,1189,100%,0.15 nM

# Reference: patent US9969775B2, “CGRP antagonist peptides” (Ferring B.V., priority 2015, dated 2018)
